{"source": "PubChem BioAssay (NCI)", "experiment_in_all_cases": "NCI anticancer screen, dose series, 48 h", "key": {"[1]": {"test_system": "SNB-75 CNS"}, "[2]": {"test_system": "786-0 renal"}, "[3]": {"test_system": "OVCAR-8 ovarian"}, "[4]": {"test_system": "NCI-H23 lung"}, "[5]": {"test_system": "NCI-H460 lung"}, "[6]": {"test_system": "NCI-H226 lung"}, "[7]": {"test_system": "COLO 205 colon"}, "[8]": {"test_system": "SF-268 CNS"}, "[9]": {"test_system": "EKVX NSCLC"}, "[10]": {"test_system": "SK-OV-3 ovarian"}, "[11]": {"test_system": "T-47D breast"}, "[12]": {"test_system": "SF-295 CNS"}, "[13]": {"test_system": "RXF 393 renal"}, "[14]": {"test_system": "IGROV1 ovarian"}, "[15]": {"test_system": "HCT-116 colon"}, "[16]": {"test_system": "UO-31 renal"}, "[17]": {"test_system": "ACHN renal"}, "[18]": {"test_system": "MDA-MB-435"}, "[19]": {"test_system": "RPMI-8226 leukemia"}, "[20]": {"test_system": "TK-10 renal"}, "[21]": {"test_system": "OVCAR-5 ovarian"}, "[22]": {"test_system": "K-562 leukemia"}, "[23]": {"test_system": "SW-620 colon"}, "[24]": {"test_system": "U251 CNS"}, "[25]": {"test_system": "SNB-19 CNS"}, "[26]": {"test_system": "NCI-H522 lung"}, "[27]": {"test_system": "UACC-62 melanoma"}}, "note": "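1) Cells in 96-well plates. 2) Compound, 48 h, 5 concentrations. 3) Linear interpolation between surrounding doses. 4) Unreached endpoint = highest concentration. Abbreviation: GI50, concentration required for 50% inhibition of growth. TGI: total growth inhibition.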", "data": [{"smiles": "Cc1ccc(-c2c3c(nn2-c2ccc(S(=O)(=O)NC(=O)NC4CCCCC4)cc2)-c2ccccc2C3)cc1", "values": [{"measurement": "GI50", "setting": "[1]", "result": 20.4, "unit": "µM"}, {"measurement": "TGI", "setting": "[1]", "result": 45.5, "unit": "µM"}, {"measurement": "GI50", "setting": "[2]", "result": 2290, "unit": "nM"}, {"measurement": "TGI", "setting": "[2]", "result": 13.8, "unit": "µM"}, {"measurement": "GI50", "setting": "[3]", "result": 26.2, "unit": "µM"}, {"measurement": "TGI", "setting": "[3]", "result": 70.7, "unit": "µM"}, {"measurement": "GI50", "setting": "[4]", "result": 10.9, "unit": "µM"}, {"measurement": "TGI", "setting": "[4]", "result": 27.1, "unit": "µM"}, {"measurement": "GI50", "setting": "[5]", "result": 8.75, "unit": "µM"}, {"measurement": "TGI", "setting": "[5]", "result": 26.3, "unit": "µM"}, {"measurement": "GI50", "setting": "[6]", "result": 20.4, "unit": "µM"}, {"measurement": "TGI", "setting": "[6]", "result": 47.3, "unit": "µM"}, {"measurement": "GI50", "setting": "[7]", "result": 12.1, "unit": "µM"}, {"measurement": "TGI", "setting": "[7]", "result": 30.4, "unit": "µM"}, {"measurement": "GI50", "setting": "[8]", "result": 11.5, "unit": "µM"}, {"measurement": "TGI", "setting": "[8]", "result": 28.6, "unit": "µM"}, {"measurement": "GI50", "setting": "[9]", "result": 11.8, "unit": "µM"}, {"measurement": "TGI", "setting": "[9]", "result": 25.4, "unit": "µM"}, {"measurement": "GI50", "setting": "[10]", "result": 18.9, "unit": "µM"}, {"measurement": "TGI", "setting": "[10]", "result": 42.4, "unit": "µM"}, {"measurement": "GI50", "setting": "[11]", "result": 25.7, "unit": "µM"}, {"measurement": "TGI", "setting": "[11]", "result": "> 100", "unit": "µM"}, {"measurement": "GI50", "setting": "[12]", "result": 18.7, "unit": "µM"}, {"measurement": "TGI", "setting": "[12]", "result": 48.7, "unit": "µM"}, {"measurement": "GI50", "setting": "[13]", "result": 23.3, "unit": "µM"}, {"measurement": "TGI", "setting": "[13]", "result": 63.1, "unit": "µM"}, {"measurement": "GI50", "setting": "[14]", "result": 12.9, "unit": "µM"}, {"measurement": "TGI", "setting": "[14]", "result": 27.9, "unit": "µM"}, {"measurement": "GI50", "setting": "[15]", "result": 3.3, "unit": "µM"}, {"measurement": "TGI", "setting": "[15]", "result": 15.9, "unit": "µM"}, {"measurement": "GI50", "setting": "[16]", "result": 1330, "unit": "nM"}, {"measurement": "TGI", "setting": "[16]", "result": 2640, "unit": "nM"}, {"measurement": "GI50", "setting": "[17]", "result": 14.6, "unit": "µM"}, {"measurement": "TGI", "setting": "[17]", "result": 29.5, "unit": "µM"}, {"measurement": "GI50", "setting": "[18]", "result": 19, "unit": "µM"}, {"measurement": "TGI", "setting": "[18]", "result": 41.4, "unit": "µM"}, {"measurement": "GI50", "setting": "[19]", "result": 2440, "unit": "nM"}, {"measurement": "TGI", "setting": "[19]", "result": 7.42, "unit": "µM"}, {"measurement": "GI50", "setting": "[20]", "result": 1700, "unit": "nM"}, {"measurement": "TGI", "setting": "[20]", "result": 9.85, "unit": "µM"}, {"measurement": "GI50", "setting": "[21]", "result": 29.2, "unit": "µM"}, {"measurement": "TGI", "setting": "[21]", "result": 70.3, "unit": "µM"}, {"measurement": "GI50", "setting": "[22]", "result": 3.1, "unit": "µM"}, {"measurement": "TGI", "setting": "[22]", "result": 13.5, "unit": "µM"}, {"measurement": "GI50", "setting": "[23]", "result": 2650, "unit": "nM"}, {"measurement": "TGI", "setting": "[23]", "result": 6.31, "unit": "µM"}, {"measurement": "GI50", "setting": "[24]", "result": 12.3, "unit": "µM"}, {"measurement": "TGI", "setting": "[24]", "result": 26.9, "unit": "µM"}, {"measurement": "GI50", "setting": "[25]", "result": 20.1, "unit": "µM"}, {"measurement": "TGI", "setting": "[25]", "result": 49.7, "unit": "µM"}, {"measurement": "GI50", "setting": "[26]", "result": 12, "unit": "µM"}, {"measurement": "TGI", "setting": "[26]", "result": 28.9, "unit": "µM"}, {"measurement": "GI50", "setting": "[27]", "result": 16.9, "unit": "µM"}]}]}
